# Experiments:
# red blood cells = test: Hemolysis assay on mouse red blood cells; format: cell-based, BALB/c mouse; details: mouse red blood cells in PBS, peptides 1-40 μM, 4 h at 37 °C, OD 450 nm of supernatant, 2% Triton X-100 positive control, mean of n = 3
# Method: Melittin has been well-documented to have strong hemolytic effects. To diminish such adverse effects, several truncated melittin were synthesized and analyzed in vitro (Figure 2A). Mouse blood cells were treated with varying concentrations of peptides for 4 h, and the optical density was measured using a microplate reader.
# Figure 2 Melittin fragments have fewer hemolytic effects than melittin. (A) Amino acid sequence of melittin and melittin-truncated peptide. (B) Hemolysis of red blood cells treated with FITC-conjugated melittin or FITC-conjugated melittin fragments at concentrations ranging from 1 μM to 40 μM and incubated at 37 °C for 4 h. […] The optical density of hemoglobin released supernatant was measured at 450 nm. […]
# Figure 4 Characterization of the optimized hybrid peptide drug, PEG-melittin-dKLA 8-26. […] The optical density was measured at 490 nm. […] The optical density of hemoglobin released in the supernatant was measured at 450 nm. […]
# Blood was collected from each BALB/c mouse. […] The optical density of the samples was measured at 450 nm using a microplate reader (Molecular Devices). The percentage of hemolysis was calculated using the following equation: hemolysis (%) = (OD450 nm sample − OD450 nm negative control)/(OD450 nm positive control − OD450 nm negative control) × 100%. All data are expressed as the mean ± SEM of three independent experiments.
# [1] = test system: THP-1-derived M2 macrophages; test: Flow cytometry binding of FITC-conjugated peptides to M2 macrophages; format: cell-based, human; details: 100 nM FITC-conjugated peptides, 1 h, percentage of FITC-positive cells, n = 3
# Method: To address the binding ability of truncated melittin peptides to M2 macrophages, fluorescein isothiocyanate (FITC)-conjugated peptides were synthesized and incubated with M2 macrophages, and the percentage of FITC-positive cells was measured using flow cytometry. […] Next, to confirm and compare the binding capabilities of melittin and melittin 8-26 to different macrophage lineages, including M0, M1, and M2, FITC-conjugated peptides were tested on each macrophage phenotype, and their binding capabilities were measured by flow cytometry. […]
# Figure 3 Binding of melittin fragments to the THP-1-derived M2 macrophages. […] (A) Melittin or melittin fragment affinity for M2 macrophages was measured using flow cytometry. […] (B) The affinity of melittin or melittin 8-26 for macrophages was detected by flow cytometry. TEXT PRINTED IN THE PICTURE: (B) Melittin: M0: 21.78; M1: 17.22; M2: 46.02 | (B) Melittin 8-26: M0: 26.8; M1: 14.74; M2: 34.66 DOUBTS OF THE COPYIST ABOUT THIS PICTURE: Panel B: the tiny quadrant labels (UL 0.00, UR 0.00, and LL values such as about 78.22, 53.98, 73.20, 85.26, 65.34) are too small, blurred or partly hidden by the dots to read with certainty, so they are left out. / Panel B: no measure or unit is printed with the large quadrant numbers. […]
substance,measurement,setting,value
melittin,concentration at which hemolysis was observed,red blood cells,above 5 μM
same,binding affinity to M2 macrophages (in words),[1],highest binding affinity

# — publication PMC9779714, “Enhanced Therapeutic Effect of Optimized Melittin-dKLA, a Peptide Agent Targeting M2-like Tumor-Associated Macrophages in Triple-Negative Breast Cancer” (International Journal of Molecular Sciences, 2022)
